In EP0987025A1, “Pharmaceitical composition or composition package containing a pyrimidine nucleoside analogue and a purine nucleoside analogue” (priority 1998, dated 2000):
Where two headings read alike, the source gives them in different places.

Tests used:
Type in all cases: in vivo, C57BL/6 mice
[1] = system: circulating B cells; assay: Flow cytometry of circulating lymphocytes; details: after Fludara suspension
Text: Whole blood samples were stained with antimouse L3T4/CD4 fluorescein isothiocyanate (FITC) conjugated (Boehringer Mannheim Biochemica) for the detection of CD4^+ lymphocytes, antimouse Ly-2R phycoerythrin (PE) conjugated (Boehringer Mannheim Biochemica) for the detection of CD8a lymphocytes, antimouse Thy-1.2 FITC conjugated (Boehringer Mannheim Biochemica) for the detection of T cells, and antimouse Ly 5 (B220)-PE Monoclonal antibody (Cederlane, Ontario, Canada) for the detection of committed B cell precursors. Samples were analyzed by FACS (Becton Dickinson).

[2] = system: mitochondrial DNA; assay: Determination of mitochondrial DNA content; details: treatment C; vs. untreated mice; 10 weeks after infection; not statistically significant
Text: To detect the mitochondrial DNA a 1544-bp mitochondrial DNA fragment was used as a probe. The mitochondrial DNA probe (kindly provided by Dr. Gadaleta, University of Bari, Italy) spans the region from nucleotide 2578 to 4122 in the complete human mitochondrial DNA. As a result of the high homology between human and mouse mitochondrial DNA this probe recognizes human and mouse sequences equally well (data not shown) (Bibb M.J., Van Etten R.A., Wright C.T., Walberg M.W., Clayton D.A., "Sequence and gene organization of mouse mitochondrial DNA.", Cell 1981; 26:167-80).
Total cellular DNA (4 µg) was digested with the restriction enzyme BamHI (Boehringer, Milan, Italy), analyzed on 0.8% agarose gel, blotted and hybridized with the 1544-bp mitochondrial probe (Brandi G., Casabianca A., Schiavano G.F., et al., "Efficacy and toxicity of long-term administration of 2',3'-dideoxycytidine in the LP-BM5 murine induced immunodeficiency model.", Antiviral Chem. Chemother. 1995; 6:153-61.). […]
Finally, the long term toxicity of Fludara in MAIDS was evaluated. […] Thus, the mitochondrial DNA content in Fludara treated mice was evaluated and only treatment C causes a slight reduction of mitochondrial DNA content (20% vs. untreated mice) although this was not statistically significant. […] The relative amount of mt DNA was determined as described in experimental procedures. […]

[3] = system: LP-BM5; details: for Lymphad. (% inh.) / Splenom. (% inh.): about 4 months from infection
Text: LP-BM5 virus was provided by Robert Yetter (Veternas Administration Hospital, Baltimore, MD) and was maintained in a persistently infected SC- 1 cell line as described (Hosier D.E., Yetter R.A., Morse H.C. III, "Functional T lymphocytes are required for a murine retrovirus induced immunodeficiency disease (MAIDS)", J. Exp. Med. 1987; 165:1737-42). C57BL/6 female mice were purchased from Nossan, Milan, Italy and were used at 5 weeks of age. Animals were infected by means of two successive intraperitoneal injections at 24-hr intervals. In the experiments reported three different virus preparations were used.
Mice were housed at 22±1°C with a 12-hr light-dark cycle, 60±5% humidity, and 12 air changes/hr.
First, the efficacy of 2-fluoro-ara-AMP (F-araAMP, Fludara) in inhibiting murine AIDS (MAIDS), a disease characterized by a lymphoproliferative disorder (lymphadenopathy and splenomegaly), associated with severe immunodeficiency and hypergammaglobulinemia, was evaluated. The disease develops in some strains of mice (C57BL/6) that are infected with a murine leukemia virus mixture termed LP-BM5. In the first preliminary experiments (after about 4 months from infection) LP-BMS infected animals were treated with three different concentrations of F-ara-AMP: 0.065 mg/mouse, 0.325 mg/mouse, 0.650 mg/mouse. The animals of each group were treated intraperitoneally for 3 days a week and for 3 weeks. At the end of the treatment animals were killed and splenomegaly, lymphadenopathy and hypergammaglobulinemia were evaluated.
Infected mice after 7 weeks from infection were treated intraperitoneally with Fludara as follows: • 1. 0.65 mg/mouse once a day for 4 days a week (total dose 7.8 mg/mouse); • 2. 0.65 mg/mouse twice a day for 5 days a week (total dose 19.5 mg/mouse); • 3. […]

[4] = 0.065 mg/mouse i.p. 3 days a week for 3 weeks
[5] = 0.325 mg/mouse i.p. 3 days a week for 3 weeks
[6] = 0.650 mg/mouse i.p. 3 days a week for 3 weeks
[7] = group a: 3.0 mg i.p. once a day for 5 consecutive days, 4 weeks, after 7 weeks of infection
[8] = group b: 3.0 mg i.p. twice a day for 5 consecutive days, 4 weeks, after 7 weeks of infection
[9] = group c: 10 mg in drinking water for 5 consecutive days, 4 weeks, after 7 weeks of infection
[10] = group d: 15 mg in drinking water for 5 consecutive days, 4 weeks, after 7 weeks of infection
[11] = regime 1: 0.65 mg once a day 4 days/week for 3 weeks i.p., after 7 weeks of infection
[12] = regime 2: 0.65 mg twice a day 5 days/week for 4 weeks i.p., after 7 weeks of infection
[13] = regime 3: 3.00 mg once a day 5 days/week for 3 weeks i.p., after 7 weeks of infection
[14] = treatment c: after 6 weeks of infection 3 mg F-ara-AMP i.p. twice a day, 5 consecutive days, 4 weeks, at 10 weeks after infection
[15] = treatment g: after 6 weeks of infection 3 mg F-ara-AMP i.p. twice a day 4 weeks, then interrupted, at 14 weeks after infection

Which results are given for `Nc1nc(F)nc2c1ncn2[C@@H]1O[C@H](COP(=O)(O)O)[C@@H](O)[C@@H]1O` [F-ara-AMP, Fludarabine phosphate]?
number of circulating B cells after suspension of administration [1]: returns to normal values; reduction of mitochondrial DNA content [2]: 20%; Lymphad. (% inh.) [3, 4]: 20±15%; Splenom. (% inh.) [3, 4]: 0%; Lymphad. (% inh.) [3, 5]: 26±9%; Splenom. (% inh.) [3, 5]: 0%; Lymphad. (% inh.) [3, 6]: 49±6%; Splenom. (% inh.) [3, 6]: 0%; Lymph node w. [3, 7]: 0.54 ± 0.32 g; Spleen w. [3, 7]: 0.50 ± 0.25 g; Lymph node w. [3, 8]: 0.05 ± 0.02 g; Spleen w. [3, 8]: 0.22 ± 0.06 g; Lymph node w. [3, 9]: 0.16 ± 0.16 g; Spleen w. [3, 9]: 0.31 ± 0.09 g; Lymph node w. [3, 10]: 0.28 ± 0.23 g; Spleen w. [3, 10]: 0.28 ± 0.13 g; Lymph node w. [3, 11]: 2.63 ± 0.57 g; Spleen weight [3, 11]: 1.01 ± 0.24 g; Lymph node w. [3, 12]: 2.11 ± 0.54 g; Spleen weight [3, 12]: 0.87 ± 0.20 g; Lymph node w. [3, 13]: 1.75 ± 0.53 g; Spleen weight [3, 13]: 0.84 ± 0.17 g; Lymph node w. [3, 14]: 0.042 ± 0.018 g; Spleen w. [3, 14]: 0.130 ± 0.004 g; Lymph node w. [3, 15]: 0.290 ± 0.05 g; Spleen w. [3, 15]: 0.41 ± 0.200 g
